Measured values taken from ChEMBL document CHEMBL1132034, “6-oxa isosteres of anacardic acids as potent inhibitors of bacterial histidine protein kinase (HPK)-mediated two-component regulatory systems” (Bioorg Med Chem Lett, 1999).
Converted amounts (≈) assume the structure as drawn.

Columns and labels:
Assay type in all cases: functional
Bacillus subtilis = assay: Ability to inhibit autophosphorylation of KinA and/or Sp0F TCS proteins from Bacillus subtilis
Staphylococcus aureus [1] = assay: In vitro antibacterial activity against Staphylococcus aureus strain, ATCC 29213
Escherichia coli = assay: Ability to inhibit autophosphorylation of NR11 and/or transphosphorylation of NR1 TCS proteins from Escherichia coli
Staphylococcus aureus [2] = assay: In vitro antibacterial activity against methicillin resistant Staphylococcus aureus (MRSA) strain, OC2089
Enterococcus faecium = assay: In vitro antibacterial activity against E. faecium(VR) strain, OC3312 Van R
Enterococcus faecalis = assay: In vitro antibacterial activity against Enterococcus faecalis strain, OC3041

SMILES | IC50 (Bacillus subtilis) | MIC (Staphylococcus aureus [1]) | IC50 (Escherichia coli) | MIC (Staphylococcus aureus [2]) | MIC (Enterococcus faecium) | MIC (Enterococcus faecalis)
CCCCCCCCCCCCCCCCCCCCOc1cccc(O)c1C(=O)O | > 500 µM | > 128 µg/mL | > 500 µM | > 128 µg/mL | > 128 µg/mL | 
CCCCCCCCCCCCCCCCOc1cccc(O)c1C(=O)O | 3 µM | > 128 µg/mL | 1.5 µM | 128 µg/mL (≈ 338 µM) | 8 µg/mL (≈ 21.1 µM) | 8 µg/mL (≈ 21.1 µM)
CC/C=C\CCCCCCCCCCOc1cccc(O)c1C(=O)O | 8 µM | 32 µg/mL (≈ 91.8 µM) | 7.8 µM | 32 µg/mL (≈ 91.8 µM) | 16 µg/mL (≈ 45.9 µM) | 16 µg/mL (≈ 45.9 µM)
O=C(O)c1c(O)cccc1OCCCc1ccccc1 | > 500 µM | > 128 µg/mL | > 500 µM | > 128 µg/mL | > 128 µg/mL | > 128 µg/mL
CCCCCCCCCCCCCCOc1cccc(O)c1C(=O)OC | > 500 µM |  | > 500 µM |  |  | 
O=C(O)c1c(O)cccc1OCCCCCc1ccccc1 | 380 µM | 64 µg/mL (≈ 213 µM) | > 500 µM | 64 µg/mL (≈ 213 µM) | 128 µg/mL (≈ 426 µM) | 128 µg/mL (≈ 426 µM)
CCCCCCCCOc1cccc(O)c1C(=O)O | 190 µM | 64 µg/mL (≈ 240 µM) | > 500 µM | 64 µg/mL (≈ 240 µM) | 128 µg/mL (≈ 481 µM) | 128 µg/mL (≈ 481 µM)
CCCCCCCCCCCCCCCc1cccc(O)c1 | > 500 µM |  |  |  |  | 
CCCCCCCCCCCCCCCc1cc(O)cc(O)c1 [CARDOL] | 235 µM |  |  |  |  | 
CCCCCCCCCCCCCCOc1ccccc1C(=O)O | > 500 µM |  | 89 µM |  |  | 
CCCCCCCCCCCCOc1cccc(O)c1C(=O)OC | > 500 µM |  | > 500 µM |  |  | 
CCCCCCCCCCCCCCOc1cccc(O)c1C(=O)O | 2.2 µM | > 64 µg/mL | 5 µM | > 32 µg/mL | 4 µg/mL (≈ 11.4 µM) | 4 µg/mL (≈ 11.4 µM)
O=C(O)c1c(O)cccc1OCCC(c1ccccc1)(c1ccccc1)c1ccccc1 | 85 µM | 4 µg/mL (≈ 9.42 µM) | 63 µM | 8 µg/mL (≈ 18.8 µM) | 16 µg/mL (≈ 37.7 µM) | 16 µg/mL (≈ 37.7 µM)
CCCCCCCCCCCCCCCCCCOc1cccc(O)c1C(=O)O | 63 µM | 128 µg/mL (≈ 315 µM) | 130 µM | 128 µg/mL (≈ 315 µM) | 128 µg/mL (≈ 315 µM) | 
CCCCCCCCCCCOc1cccc(O)c1C(=O)O | 25 µM | 8 µg/mL (≈ 25.9 µM) | 44 µM | 16 µg/mL (≈ 51.9 µM) | 16 µg/mL (≈ 51.9 µM) | 16 µg/mL (≈ 51.9 µM)
CCCCCCCCCCCCOc1cccc(O)c1C(=O)O | 4.4 µM | 8 µg/mL (≈ 24.8 µM) | 17 µM | 8 µg/mL (≈ 24.8 µM) | 8 µg/mL (≈ 24.8 µM) | 8 µg/mL (≈ 24.8 µM)
CCCCCCCCCCCCCCOc1ccccc1C(=O)OC | > 500 µM |  | > 500 µM |  |  | 
